The record followed here is the Deep4Chem optical property database.

The structures appear in SMILES notation.

The data set can be described thus: photoluminescence quantum yield (fraction); solvent given as SMILES.
[1] abbreviates: in O=P(c1ccccc1)(c1ccccc1)c1ccccc1Oc1ccccc1P(=O)(c1ccccc1)c1ccccc1.

`CC(C)(C)c1ccc2c(c1)c1cc(C(C)(C)C)ccc1n2-c1ccc(-c2nc(-c3ccc(P(=O)(c4ccccc4)c4ccccc4)cc3)nc(-c3ccc(P(=O)(c4ccccc4)c4ccccc4)cc3)n2)cc1` showed a photoluminescence quantum yield under setting [1] of 0.96.
`Cc1ccccc1C1=C2C=c3c(oc4ccc(C(C)(C)C)cc34)=[N+]2[B-](F)(F)n2c1cc1c3cc(C(C)(C)C)ccc3oc12`: the photoluminescence quantum yield by setting is: (in C1CCCCC1) 0.89; (in CCOC(C)=O) 0.93; (in CO) 0.86.
Where the note is “in CO”, `c1ccc(N(c2ccccc2)c2ccc(-c3ncc(-c4cnc(-c5ccc(N(c6ccccc6)c6ccccc6)cc5)s4)s3)cc2)cc1` displayed a photoluminescence quantum yield of 0.2.
`CC(C)(C)c1ccc2c(c1)c1cc(C(C)(C)C)ccc1n2-c1ccc(N(c2ccc(-c3ccc(-c4ccc(N(c5ccc(-n6c7ccc(C(C)(C)C)cc7c7cc(C(C)(C)C)ccc76)cc5)c5ccc(-n6c7ccc(C(C)(C)C)cc7c7cc(C(C)(C)C)ccc76)cc5)cc4)c4nsnc34)cc2)c2ccc(-n3c4ccc(C(C)(C)C)cc4c4cc(C(C)(C)C)ccc43)cc2)cc1` showed a photoluminescence quantum yield (in ClCCl) of 0.05.
Compound `F[B-]1(F)Oc2ccccc2-c2cnc3ccccc3[n+]21` returned a photoluminescence quantum yield (in Cc1ccccc1) of 0.086.
As to `COCCOCCOCCOCC(COCCOCCOCCOC)Oc1cc(/C=C/c2ccc(C=C(C#N)C#N)cc2)c(OC(COCCOCCOCCOC)COCCOCCOCCOC)cc1/C=C/c1ccc(C=C(C#N)C#N)cc1`, the photoluminescence quantum yield (in ClCCl) came out at 0.53.
The same measure, in the same setting: the result for `COCCOCCOCCOCC(COCCOCCOCCOC)Oc1cc(/C=C/c2ccc(/C=C(\C#N)C(=O)c3ccccc3)cc2)c(OC(COCCOCCOCCOC)COCCOCCOCCOC)cc1/C=C/c1ccc(/C=C(\C#N)C(=O)c2ccccc2)cc1` reads 0.23.
Take `Cc1ccccc1C1=C2C=CC(=[N+](C)C)C=[C]2[Ge]([CH3])([CH3])[c]2cc(N(C)C)ccc21`: under “in O”, the photoluminescence quantum yield worked out at 0.34.
In the case of `Cc1cc(C)c([B-]2(c3c(C)cc(C)cc3C)[O+]=P(c3ccccc3)(c3ccccc3)c3cc(-c4ccc(C(C)(C)C)cc4)sc3-c3sc(-c4ccc(C(C)(C)C)cc4)cc32)c(C)c1`, the photoluminescence quantum yield (in C1CCOC1) came out at 0.16.
For the compound `CN(C)c1ccc2nc(-c3ccc(/C=N/Nc4ccccc4)cc3)sc2c1`, the photoluminescence quantum yield runs as follows: (in C1CCCCC1) 0.023; (in CC#N) 0.067; (in CO) 0.026; (in ClC(Cl)Cl) 0.057.
Compound `Fc1cc(F)c2cc3cccc[n+]3cc2c1` displayed a photoluminescence quantum yield (in O) of 0.3.
In turn, `F[B-]1(F)n2c(Cl)ccc2C(c2c(Cl)cccc2Cl)=C2C=CC(NCc3ccccc3)=[N+]21` yielded a photoluminescence quantum yield (in CC#N) of 0.76; a photoluminescence quantum yield (in CCCCCC) of 0.82; a photoluminescence quantum yield (in CCOC(C)=O) of 0.67; a photoluminescence quantum yield (in CO) of 0.72; a photoluminescence quantum yield (in ClCCl) of 0.8.
Compound `COc1ccc(C2=[N+]3C(=Nc4c(-c5ccccc5)cc(-c5ccc(OC)cc5)n4[B-]3(F)F)C(c3ccccc3)=C2)cc1` returned a photoluminescence quantum yield (in ClC(Cl)Cl) of 0.36 and a photoluminescence quantum yield (in ClCCl) of 0.36.
Compound `O=S(=O)(c1ccc(N(c2ccccc2)c2ccccc2)cc1)c1ccc(S(=O)(=O)c2ccc(N(c3ccccc3)c3ccccc3)cc2)cc1` displayed a photoluminescence quantum yield (in Cc1ccccc1) of 0.64.
As to `CC/[NH+]=c1\cc2oc3cc(NCCC(=O)NCCCCC(NC(C)=O)C(=O)OC)c4ccccc4c3nc-2cc1C` (stereo unspecified), the photoluminescence quantum yield is, setting by setting: (in CCO) 0.32; (in O) 0.46.
The compound `Brc1ccc(-c2nc3sc4ccccc4c3s2)cc1` yielded a photoluminescence quantum yield (in CS(C)=O) of 0.88.
In turn, `CCOC(=O)c1c2c3c(ccc(OC)c3c3cc4c(cc13)[Si](C)(C)O[Si]4(C)C)N(C)C2=O` yielded a photoluminescence quantum yield (in CC#N) of 0.46.
Turning to `CC1=NN(c2cccc3ccccc23)[B-](F)(F)[n+]2ccccc21`, the photoluminescence quantum yield (in ClCCl) was 0.07.
Consider `O=c1oc2ccc3ccccc3c2nc1-c1ccc(Cl)cc1`, for which the photoluminescence quantum yield (in c1ccccc1) is 0.478.
Take `CCCCCCc1ccc(-n2c3[n+](c4c5ccccc5c5ccccc5c42)[B-](C)(C)c2cc(N(c4ccccc4)c4ccccc4)ccc2-3)cc1`: the photoluminescence quantum yield (in C1CCOC1) came to 0.86, the photoluminescence quantum yield (in CC#N) turned out to be 0.73, the photoluminescence quantum yield (in Cc1ccccc1) worked out at 0.83 and the photoluminescence quantum yield (in ClCCl) amounted to 0.88.
As for `O=S(=O)(c1cccc(N2c3ccccc3Sc3ccccc32)c1)c1cccc(N2c3ccccc3Sc3ccccc32)c1`, the photoluminescence quantum yield runs as follows: (in CCCCC(CC)n1c2ccc(-n3c4ccccc4c4ccccc43)cc2c2cc(-n3c4ccccc4c4ccccc43)ccc21) 0.082; (in c1cc(-n2c3ccccc3c3ccccc32)cc(-n2c3ccccc3c3ccccc32)c1) 0.116.
As to `O=C1OC(=O)c2ccc(N(c3ccccc3)c3ccc4ccccc4c3)c3cccc1c23`, the photoluminescence quantum yield by setting is: (in C1CCOC1) 0.0003; (in CCCCCC) 0.335; (in c1ccccc1) 0.0162.
Take `O=P1(c2ccccc2)c2ccccc2-c2sc3ccccc3c21` (stereo unspecified): the photoluminescence quantum yield (in ClCCl) was found to be 0.71.
Take `C[Si](C)(c1cccc2ccccc12)[Si](C)(C)[Si](C)(C)[Si](C)(C)[Si](C)(C)[Si](C)(C)c1c2ccccc2cc2ccccc12`: the photoluminescence quantum yield is, setting by setting: (in C1CCCCC1) 0.5; (in CC#N) 0.017.
`CCOC(=O)c1ccc(C2=C(c3ccccc3)c3oc4ccccc4[n+]3[B-](F)(F)O2)cc1` returned a photoluminescence quantum yield (in C1CCOC1) of 0.011.
As for `Cn1ccc(-c2nc3ccccc3nc2/C=C/N2CCCC2)c1`, the photoluminescence quantum yield by setting is: (in C1CCCCC1) 0.184; (in C1CCOC1) 0.495; (in CC#N) 0.33; (in CC(C)=O) 0.414; (in CCO) 0.022; (in CO) 0.006. In addition, the photoluminescence quantum yield by setting is: (in CS(C)=O) 0.325; (in Cc1ccccc1) 0.469; (in ClCCl) 0.611.
`CCCCCCN(CCCCCC)c1ccc(C#Cc2ccc(C(F)(F)F)cc2)cc1`: the photoluminescence quantum yield runs as follows: (in CO) 0.0074; (in ClCCl) 0.24.
The compound `CC(=O)c1c(N[C@@H](Cc2ccccc2)C(=O)O)c2ccc(N(C)C)cc2oc1=O` displayed a photoluminescence quantum yield (in ClCCl) of 0.0026.
`c1ccc(-[c+]2c3ccccc3sc3ccccc32)cc1` had a photoluminescence quantum yield (in CC#N) of 0.02.
Where the note is “in C1CCCCC1”, `CCC(C)(C)c1ccc(-c2ccc3c(c2)C(CCOC)(CCOC)c2cc4c(cc2-3)C(CCOC)(CCOC)c2cc(-c3ccc(C(C)(C)CC)cc3)ccc2-4)cc1` came in with a photoluminescence quantum yield of 0.86.
As to `Cn1nc(-c2ccccc2)c2n[nH]nc2c1=O`, the photoluminescence quantum yield stood at 0.34 (in CC#N), 0.21 (in CCO) and 0.23 (in Cc1ccccc1).
Turning to `COc1ccc(/C2=C3N=C(C(c4ccccc4)=C/3c3ccccc3)/C(c3ccc(OC)cc3)=c3\[nH]/c(c(-c4ccccc4)c3-c3ccccc3)=C(/c3ccc(OC)cc3)C3=N/C(=C(/c4ccc(OC)cc4)c4[nH]c2c(-c2ccccc2)c4-c2ccccc2)C(c2ccccc2)=C3c2ccccc2)cc1`, the photoluminescence quantum yield (in ClCCl) is 0.006.
Turning to `N#Cc1cccc(C#N)c1-n1c2ccccc2c2cc(-c3ccc4c(c3)c3ccccc3n4-c3c(C#N)cccc3C#N)ccc21`, the photoluminescence quantum yield came out at 0.72 (in Cc1ccccc1) and 0.72 under setting [1].
Where the note is “in ClC(Cl)Cl”, `CCOC(CN1C(=O)C2=C(c3cc4cc(C(C)(C)C)cc(C(C)(C)C)c4o3)N(CC(OCC)OCC)C(=O)C2=C1c1cc2cc(C(C)(C)C)cc(C(C)(C)C)c2o1)OCC` gave a photoluminescence quantum yield of 0.75.
`COc1ccc(-c2cnc(/C=C/c3ccc(C#N)cc3)o2)cc1OC` gave a photoluminescence quantum yield (in ClCCl) of 0.38.
`Cc1c2c(c(C)c3ccccc13)C1=CC3Nc4ccccc4NC3C=C12` (stereo unspecified) yielded a photoluminescence quantum yield (in ClC(Cl)Cl) of 0.02.
